# Laboratory results as given in ChEMBL document CHEMBL6096732 (J Med Chem, 2025).
# Active and inactive are the calls of the source. No cut-off for these calls is given here.
# Columns and labels:
# B16-F10 [1] = assay: Effect on acetylated alpha-tubulin expression level in mouse B16-F10 cells at 5 to 20 uM incubated for 24 hrs by Western blot analysis; assay type: functional, cell-based; settings: dose 5-20 µM
# [2] = Half-life in male Sprague-Dawley rat at 2 mg/kg, iv measured after 12 hrs by LC-MS/MS analysis; assay type: ADME, organism-based; settings: in vivo
# 4T1 [3] = assay: Antitumor activity against mouse 4T1 cells implanted in female BALB/c mouse model assessed as decrease in PAPR1 expression in tumor administrated orally as once daily dose via gavage for 14 days by Western blot analysis; assay type: functional, cell-based; settings: route po, time 14.0 day
# [4] = molecular target: Programmed cell death 1 ligand 1 (Mus musculus) (UniProt Q9EP73); assay: Induction of PD-L1 degradation in mouse B16-F10 cells assessed as decrease in PD-L1 protein level by measuring maximal efficacy at 10 uM incubated for 24 hrs by Western blot analysis relative to control; assay type: cell-based
# Programmed cell death 1 ligand 1 (Mus musculus), sequence (Q9EP73 whole entry): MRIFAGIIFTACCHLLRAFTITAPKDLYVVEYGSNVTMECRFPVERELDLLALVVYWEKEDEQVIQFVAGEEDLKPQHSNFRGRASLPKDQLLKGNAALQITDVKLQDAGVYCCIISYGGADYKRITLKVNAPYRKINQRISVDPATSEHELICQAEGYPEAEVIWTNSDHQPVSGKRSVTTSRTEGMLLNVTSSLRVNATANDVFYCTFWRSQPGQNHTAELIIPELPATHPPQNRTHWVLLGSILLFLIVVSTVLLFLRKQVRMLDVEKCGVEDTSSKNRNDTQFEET
# Histone deacetylase 1 = Histone deacetylase 1 (Homo sapiens, UniProt Q13547); assay: Inhibition of recombinant HDAC1 (unknown origin) using Boc-Lys(acetyl)-AMC as substrate preincubated for 1 hr followed by substrate addition and measured after 2 hrs by fluorescence based micro plate reader analysis
# Histone deacetylase 1, sequence (Q13547 whole entry): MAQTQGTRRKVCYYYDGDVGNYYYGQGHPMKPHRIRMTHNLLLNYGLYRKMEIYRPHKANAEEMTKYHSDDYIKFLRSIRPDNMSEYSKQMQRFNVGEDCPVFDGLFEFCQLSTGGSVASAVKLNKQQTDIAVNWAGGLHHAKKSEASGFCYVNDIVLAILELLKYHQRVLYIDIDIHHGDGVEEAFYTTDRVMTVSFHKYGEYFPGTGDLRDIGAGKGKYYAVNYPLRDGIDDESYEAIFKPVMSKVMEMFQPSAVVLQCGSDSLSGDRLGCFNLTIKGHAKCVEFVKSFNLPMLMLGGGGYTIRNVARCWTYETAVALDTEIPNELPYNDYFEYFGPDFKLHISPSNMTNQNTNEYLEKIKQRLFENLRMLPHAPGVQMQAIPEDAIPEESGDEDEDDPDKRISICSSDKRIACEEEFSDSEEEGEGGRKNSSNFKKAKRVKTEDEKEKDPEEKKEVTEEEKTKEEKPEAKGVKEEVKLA
# [5] = AUC (0 to infinity) in male Sprague-Dawley rat at 2 mg/kg, iv measured after 12 hrs by LC-MS/MS analysis; assay type: ADME, organism-based; settings: in vivo
# Histone deacetylase 4 = Histone deacetylase 4 (Homo sapiens, UniProt P56524); assay: Inhibition of recombinant HDAC4 (unknown origin) using Boc-Lys(trifluoroacetyl)-AMC as substrate preincubated for 1 hr followed by substrate addition and measured after 2 hrs by fluorescence based micro plate reader analysis
# Histone deacetylase 4, sequence (P56524 whole entry): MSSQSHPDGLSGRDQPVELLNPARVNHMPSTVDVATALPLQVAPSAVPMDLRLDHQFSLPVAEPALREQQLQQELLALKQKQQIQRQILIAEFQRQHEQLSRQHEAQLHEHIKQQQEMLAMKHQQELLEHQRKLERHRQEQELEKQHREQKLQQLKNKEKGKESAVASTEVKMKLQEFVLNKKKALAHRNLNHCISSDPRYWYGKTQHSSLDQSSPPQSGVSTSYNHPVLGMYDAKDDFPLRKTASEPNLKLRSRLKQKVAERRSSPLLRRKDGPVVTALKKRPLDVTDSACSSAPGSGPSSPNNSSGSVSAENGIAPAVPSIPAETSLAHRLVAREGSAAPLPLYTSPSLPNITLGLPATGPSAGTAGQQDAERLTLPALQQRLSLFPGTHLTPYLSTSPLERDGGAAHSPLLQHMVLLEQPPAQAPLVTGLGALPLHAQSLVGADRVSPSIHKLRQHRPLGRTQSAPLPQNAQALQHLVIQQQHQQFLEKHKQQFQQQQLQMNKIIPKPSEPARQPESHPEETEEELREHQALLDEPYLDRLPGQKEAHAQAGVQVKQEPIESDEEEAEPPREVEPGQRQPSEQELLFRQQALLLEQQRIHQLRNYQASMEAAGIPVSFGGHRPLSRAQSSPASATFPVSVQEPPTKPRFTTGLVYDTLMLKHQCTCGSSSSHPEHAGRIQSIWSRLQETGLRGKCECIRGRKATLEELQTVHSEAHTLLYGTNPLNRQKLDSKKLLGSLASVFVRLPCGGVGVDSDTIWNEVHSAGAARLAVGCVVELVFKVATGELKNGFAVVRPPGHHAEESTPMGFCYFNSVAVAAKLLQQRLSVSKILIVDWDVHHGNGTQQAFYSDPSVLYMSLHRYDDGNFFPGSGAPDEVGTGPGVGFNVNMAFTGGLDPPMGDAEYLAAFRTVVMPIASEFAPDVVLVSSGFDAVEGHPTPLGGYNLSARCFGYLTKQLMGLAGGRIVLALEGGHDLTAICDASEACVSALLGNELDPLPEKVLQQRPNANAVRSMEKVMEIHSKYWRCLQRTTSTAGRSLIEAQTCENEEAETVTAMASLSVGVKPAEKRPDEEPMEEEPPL
# [6] = Cmax in male Sprague-Dawley rat at 20 mg/kg, po measured after 12 hrs by LC-MS/MS analysis; assay type: ADME, organism-based; settings: in vivo
# Histone deacetylase 11 = Histone deacetylase 11 (Homo sapiens, UniProt Q96DB2); assay: Inhibition of recombinant HDAC11 (unknown origin) preincubated for 1 hr followed by substrate addition and measured after 2 hrs by fluorescence based micro plate reader analysis
# Histone deacetylase 11, sequence (Q96DB2 whole entry): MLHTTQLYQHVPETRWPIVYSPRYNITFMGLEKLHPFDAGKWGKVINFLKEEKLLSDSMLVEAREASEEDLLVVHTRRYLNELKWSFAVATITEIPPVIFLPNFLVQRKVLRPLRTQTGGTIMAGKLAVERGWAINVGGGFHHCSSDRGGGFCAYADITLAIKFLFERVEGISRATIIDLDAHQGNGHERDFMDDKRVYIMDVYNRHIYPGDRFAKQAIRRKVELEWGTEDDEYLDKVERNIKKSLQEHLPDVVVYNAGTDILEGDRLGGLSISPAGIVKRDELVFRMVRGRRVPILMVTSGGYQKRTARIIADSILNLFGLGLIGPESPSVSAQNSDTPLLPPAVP
# [7] = VRT (0 to t) in male Sprague-Dawley rat at 20 mg/kg, po measured after 12 hrs by LC-MS/MS analysis; assay type: ADME, organism-based; settings: in vivo
# B16-F10 [8] = assay: Synergistic antitumor activity against mouse B16-F10 cells implanted in male C57BL/6 mouse model assessed as tumor growth inhibition at 50 mg/kg, po co-administered with NP-19 as once daily dosage via gavage for 14 days relative to control; assay type: functional; settings: B16-F10, 336 h, time 14 day, read-out: TGI
# B16-F10 [9] = assay: Induction of apoptosis in mouse B16-F10 cells assessed as increase in apoptotic cells at 20 uM incubated for 48 hrs by Annexin V-FITC/PI staining based flow cytometric analysis relative to control; assay type: functional
# [10] = AUMC (0 to t) in male Sprague-Dawley rat at 20 mg/kg, po measured after 12 hrs by LC-MS/MS analysis; assay type: ADME, organism-based; settings: in vivo
# [11] = molecular target: Programmed cell death 1 ligand 1 (Mus musculus) (UniProt Q9EP73); assay: (§1) Induction of PD-L1 degradation in mouse B16-F10 cells assessed as decrease in PD-L1 protein level incubated for 24 hrs by Western blot analysis; assay type: cell-based
# [12] = molecular target: Programmed cell death 1 ligand 1 (Mus musculus, UniProt Q9EP73); assay: as §1; assay type: cell-based
# Programmed cell death 1 ligand 1, sequence (Q9EP73 whole entry): as the sequence (Q9EP73 whole entry) above
# 4T1 [13] = assay: Induction of DNA damage in mouse 4T1 cells assessed as increase in gamma-H2AX expression at 2 uM incubated for 24 hrs by Western blot analysis; assay type: functional, cell-based
# [14] = VRT (0 to t) in male Sprague-Dawley rat at 2 mg/kg, iv measured after 12 hrs by LC-MS/MS analysis; assay type: ADME, organism-based; settings: in vivo
# [15] = AUMC (0 to infinity) in male Sprague-Dawley rat at 20 mg/kg, po measured after 12 hrs by LC-MS/MS analysis; assay type: ADME, organism-based; settings: in vivo
# 4T1 [16] = assay: Antitumor activity against mouse 4T1 cells implanted in female BALB/c mouse model assessed as tumor growth inhibition administrated orally as once daily dose via gavage for 14 days relative to control; assay type: functional; settings: route po; time 14 day
# [17] = molecular target: Programmed cell death 1 ligand 1 (Mus musculus) (UniProt Q9EP73); assay: Induction of PD-L1 degradation in mouse B16-F10 cells assessed as decrease in PD-L1 protein level at 5 uM preincubated with MG132 for 4 hrs followed by compound addition and measured after 24 hrs by Western blot analysis; assay type: cell-based
# [18] = AUMC (0 to t) in male Sprague-Dawley rat at 2 mg/kg, iv measured after 12 hrs by LC-MS/MS analysis; assay type: ADME, organism-based; settings: in vivo
# [19] = Ratio of AUC (0 to t) to AUC (0 to infinity) in male Sprague-Dawley rat at 20 mg/kg, po measured after 12 hrs by LC-MS/MS analysis; assay type: ADME, organism-based; settings: in vivo
# B16-F10 [20] = assay: Anti-invasive activity in mouse B16-F10 cells assessed as reduction in invasive capacity at 5 to 20 uM incubated for 24 to 48 hrs by crystal violet staining based microscopic analysis; assay type: functional, cell-based; settings: dose 5-20 µM, time 24-48 hrs
# 4T1 [21] = assay: Downregulation of PARP1 expression in mouse 4T1 cells at 5 uM by DAPI staining based immunofluorescence analysis; assay type: functional, cell-based
# B16-F10 [22] = assay: Upregulation of cathepsin B expression in mouse B16-F10 cells at 5 to 20 uM incubated for 24 hrs by Western blot analysis; assay type: functional, cell-based; settings: dose 5-20 µM
# [23] = Toxicity in male C57BL/6 mouse implanted with mouse B16-F10 cells assessed as histopathological changes in heart at 50 mg/kg, po administered once daily for 14 days by HandE staining based microscopic analysis; assay type: organism-based; settings: in vivo, 336 h, time 14 day
# B16-F10 [24] = assay: Induction of DNA damage in mouse B16-F10 cells assessed as increase in gamma-H2AX expression at 2 uM incubated for 24 hrs by Western blot analysis; assay type: functional, cell-based
# Mus musculus = assay: Effect on acetylated alpha-tubulin level in male C57BL/6 mouse tumor implanted with mouse B16-F10 cells at 50 mg/kg, po administered once daily via gavage for 14 days by Western blot analysis; assay type: functional, organism-based; settings: time 14.0 day
# 4T1 [25] = assay: Antitumor activity against mouse 4T1 cells implanted in female BALB/c mouse model assessed as decrease in PAPR1 fluorescence intensity in tumor co-administrated orally with olaparib as once daily dose via gavage for 14 days by DAPI staining based immunofluorescence analysis; assay type: functional, cell-based; settings: route po, time 14.0 day
# [26] = Toxicity in male C57BL/6 mouse implanted with mouse B16-F10 cells assessed as histopathological changes in heart at 50 mg/kg, po co-administered with NP-19 as once daily dosage via gavage for 14 days by HandE staining based microscopic analysis; assay type: organism-based; settings: in vivo, 336 h, time 14 day
# [27] = AUC (0 to infinity) in male Sprague-Dawley rat at 20 mg/kg, po measured after 12 hrs by LC-MS/MS analysis; assay type: ADME, organism-based; settings: in vivo
# B16-F10 [28] = assay: Inhibition of cell migration in mouse B16-F10 cells assessed as wound area at 5 uM incubated for 24 hrs by wound healing assay (reference value: 50.36 +/- 1.68 %); assay type: functional; design: scale not given: the % may be the effect or the level left
# B16-F10 [29] = assay: cells; assay type: functional, cell-based; settings: Mus musculus, B16-F10, 72 h
# Description: Antiproliferative activity against mouse B16-F10 cells assessed as inhibition of cell growth incubated for 72 hrs by MTT assay
# HCT-116 = assay: cells; assay type: functional, cell-based; settings: Homo sapiens, HCT-116, 72 h
# Description: Antiproliferative activity against human HCT-116 cells assessed as inhibition of cell growth incubated for 72 hrs by MTT assay
# [30] = Toxicity in male C57BL/6 mouse implanted with mouse B16-F10 cells assessed as histopathological changes in kidney at 50 mg/kg, po administered once daily for 14 days by HandE staining based microscopic analysis; assay type: organism-based; settings: in vivo, 336 h, time 14 day
smiles,measurement,setting,value
CCCNNC(=O)c1ccc(Cn2c3ccccc3c3c(-c4ccccn4)nc4ccccc4c32)cc1,Activity,B16-F10 [1],inactive
same,half-life,[2],37.8 min
same,Activity,4T1 [3],Active
same,Emax,[4],85%
same,IC50,Histone deacetylase 1,6.8 µM
same,AUC(0-inf),[5],857 ng·h/mL
same,IC50,Histone deacetylase 4,> 10 µM
same,Cmax,[6],1390 ng/mL
same,IC50,Histone deacetylase 11,8.87 µM
same,VRT(t),[7],7.932 hr2
same,inhibition in vivo at 50 mg/kg,B16-F10 [8],80%
same,Activity,B16-F10 [9],60.7%
same,AUMCt,[10],34704.993 hr.hr.ug/L
same,Activity,[11],Dose-dependent-effect
same,DC50,[12],4.03 µM
same,Activity,4T1 [13],Active
same,VRT(t),[14],0.641 hr2
same,AUMC,[15],39983.874 hr.hr.ug/L
same,TGI,4T1 [16],41%
same,Activity,[17],Active
same,AUMCt,[18],626.686 hr.hr.ug/L
same,Ratio AUC,[19],96.65%
same,Activity,B16-F10 [20],Active
same,Activity,4T1 [21],Active
same,Activity,B16-F10 [22],Active
same,Activity,[23],Non-toxic
same,Activity,B16-F10 [24],Active
same,Activity,Mus musculus,inactive
same,Activity,4T1 [25],Active
same,Activity,[26],Non-toxic
same,AUC(0-inf),[27],8170 ng·h/mL
same,Activity,B16-F10 [28],35.33%
same,IC50,B16-F10 [29],5.56 µM
same,IC50,HCT-116,6.82 µM
same,Activity,[30],Non-toxic
